Assay results as given in PMC11620503 (Antimicrobial Agents and Chemotherapy, 2024).
In brackets after ≈: the same amount, converted by molar mass.

Tests used:
[1] = system: Carbapenemase-producing P. aeruginosa (7); test: MIC and MBC testing; format: cell-based, Pseudomonas aeruginosa; conditions: 7 carbapenemase-producing P. aeruginosa; fixed BLI concentration (μg/mL) in label
[2] = system: Acinetobacter baumannii (46); test: MIC, broth microdilution; format: cell-based
[3] = system: Cefepime/taniborbactam-nonsusceptible Enterobacterales with metallo-carbapenemases (25); test: MIC, broth microdilution; format: cell-based; conditions: CDC AR Bank
[4] = system: P. aeruginosa CDC-110 (VIM-2); test: Lethal mouse model of systemic infection; conditions: Pseudomonas aeruginosa, in Mus musculus, sc, read-out: ED50 of MEM (95% confidence intervals)
[5] = system: A. baumannii CDC-83 (NDM-1, OXA-23, 69); test: MIC, broth microdilution; format: cell-based, Acinetobacter baumannii; conditions: agent alone
[6] = system: Bacteroides ovatus KUB3009; test: MIC, agar dilution, reference strains of anaerobic bacteria; format: cell-based
NDM-4 = NDM-4 (Klebsiella pneumoniae, UniProt C7C422, M154L); test: Ki app determination (Waley's method)
CTX-M-14 = CTX-M-14 (Escherichia coli, UniProt Q9L5C7); test: Ki app determination (Waley's method)
[7] = system: Prevotella buccae KUB2992; test: MIC, agar dilution, reference strains of anaerobic bacteria; format: cell-based; conditions: Segatella buccae
[8] = system: Bacteroides fragilis KUB2982; test: as above; format: cell-based
CTX-M-15 = CTX-M-15 (Escherichia coli, UniProt Q9EXV5); test: Ki app determination (Waley's method)
CTX-M-27 = CTX-M-27 (Escherichia coli, UniProt Q840M4); test: Ki app determination (Waley's method)
CTX-Ms and PDC-11 = test: Ki app determination, range over enzymes; conditions: read-out: Ki app values, range; range over CTX-Ms and PDC-11
[9] = system: Bacteroides fragilis ATCC 25285; test: MIC, agar dilution, reference strains of anaerobic bacteria; format: cell-based; conditions: ATCC25285
[10] = system: the other seven anaerobic strains; test: Intrinsic antibacterial activity, MIC agar dilution; format: cell-based
Method: MICs were determined by the broth microdilution method and agar dilution method (for anaerobic bacteria only) according to CLSI ([37], [38]). When investigating the effect of HSA on the MICs, CAMHB with 4% HSA (FUJIFILM Wako Pure Chemical Corporation) was used. […] The MBC was defined as the lowest drug concentration at which ≥99.9% of the original inoculum was killed.

OXA-23 = OXA-23 (Acinetobacter baumannii, UniProt Q9L4P2); test: Ki app determination (Waley's method)
OXA-66 = OXA-66 (Acinetobacter baumannii, UniProt Q58XD2); test: Ki app determination (Waley's method)
[11] = molecular target: class A carbapenemase KPCs; test: Ki app determination, range over enzymes; conditions: read-out: Ki app values, range
[12] = system: Peptoniphilus asaccharolyticus ATCC 14963; test: MIC, agar dilution, reference strains of anaerobic bacteria; format: cell-based; conditions: ATCC14963
Atopobium rimae KUB3014 = test: as above; format: cell-based; conditions: Lancefieldella rimae
[13] = system: Fusobacterium nucleatum ATCC 25586; test: as above; format: cell-based; conditions: ATCC25586
[14] = system: Prevotella melaninogenica KUB3005; test: as above; format: cell-based
IMP-1 = IMP-1 (Serratia marcescens, UniProt P52699); test: Ki app determination (Waley's method)
SHV-12 = SHV-12 (Klebsiella pneumoniae, UniProt P0A3M1, L31Q); test: Ki app determination (Waley's method)
NDM-6 = NDM-6 (Klebsiella pneumoniae, UniProt C7C422, A233V); test: Ki app determination (Waley's method)
[15] = system: Clostridioides difficile ATCC 43255; test: MIC, agar dilution, reference strains of anaerobic bacteria; format: cell-based; conditions: ATCC43255
Parvimonas micra KUB3000 = test: as above; format: cell-based
[16] = system: Prevotella histicola KUB2989; test: as above; format: cell-based
[17] = system: Bacteroides fragilis KUB2983; test: as above; format: cell-based
[18] = CLSI breakpoints, marked c: breakpoints for β-lactam alone
[19] = fixed concentration (μg/mL) in label

Q: Which MBC range [1] does the source give for C[C@@H](O)[C@H]1C(=O)N2C(C(=O)O)=C(S[C@@H]3CN[C@H](C(=O)N(C)C)C3)[C@H](C)[C@H]12 [MEM, meropenem] here?
A: 64 to 256 µg/mL

Q: And the MIC Range [1]?
A: 64 to 256 µg/mL

Q: And the “CLSI MIC interpretation I (intermediate)” value [2, 18]?
A: 0%

Q: What about the “CLSI MIC interpretation R (resistant)” value [2, 18] of the same compound?
A: 100%

Q: And the “CLSI MIC interpretation S (susceptible)” value [2, 18]?
A: 0%

Q: And the MIC50 [2, 19]?
A: 32 µg/mL (≈ 83.4 µM)

Q: And the “CLSI MIC interpretation I (intermediate)” value [3, 18]?
A: 0%

Q: And the “CLSI MIC interpretation R (resistant)” value [3, 18]?
A: 96%

Q: And the “CLSI MIC interpretation S (susceptible)” value [3, 18]?
A: 4%

Q: What about the MIC50 [3, 19] of the same compound?
A: 32 µg/mL (≈ 83.4 µM)

Q: What about the MIC90 [3, 19] of the same compound?
A: > 32 µg/mL

Q: And the ED50 [4]?
A: 218 mg/kg

Q: CC(C)(O/N=C(\C(=O)N[C@@H]1C(=O)N2C(C(=O)[O-])=C(C[N+]3(CCNC(=O)c4ccc(O)c(O)c4Cl)CCCC3)CS[C@H]12)c1csc(N)n1)C(=O)O [FDC, cefiderocol] was tested. Which MIC [5] did it give?
A: 16 µg/mL (≈ 21.3 µM)

Q: N[C@@H](C(=O)N1CC(Oc2ccc3c(c2C(=O)O)OB(O)CC3)C1)c1c[nH]cn1 [KSP-1007, 7-({1-[(2R)-2-amino-2-(1H-imidazol-4-yl)acetyl]azetidin-3-yl}oxy)-2-hydroxy-3,4-dihydro-2H-1,2-benzoxaborinine-8-carboxylic acid] was tested. Which MIC [6] did it give?
A: 128 µg/mL (≈ 331 µM)

Q: And the Ki (NDM-4)?
A: 153 ± 45.2 nM

Q: And the Ki (CTX-M-14)?
A: 0.153 ± 0.0235 nM

Q: And the MIC [7]?
A: 8 µg/mL (≈ 20.7 µM)

Q: And the MIC [8]?
A: 16 µg/mL (≈ 41.4 µM)

Q: And the Ki (CTX-M-15)?
A: 0.0664 ± 0.015 nM

Q: And the Ki (CTX-M-27)?
A: 0.159 ± 0.0228 nM

Q: And the Ki (CTX-Ms and PDC-11)?
A: 0.0664 to 0.79 nM

Q: What about the MIC [9] of the same compound?
A: 8 µg/mL (≈ 20.7 µM)

Q: What about the MIC [10] of the same compound?
A: > 256 µg/mL

Q: And the Ki (OXA-23)?
A: 4.07 ± 0.237 nM

Q: What about the Ki (OXA-66) of the same compound?
A: 5.78 ± 0.654 nM

Q: What about the Ki [11] of the same compound?
A: 0.836 to 2.19 nM

Q: And the MIC [12]?
A: 32 µg/mL (≈ 82.9 µM)

Q: What about the MIC (Atopobium rimae KUB3014) of the same compound?
A: 8 µg/mL (≈ 20.7 µM)

Q: What about the MIC [13] of the same compound?
A: 32 µg/mL (≈ 82.9 µM)

Q: And the MIC [14]?
A: 4 µg/mL (≈ 10.4 µM)

Q: And the Ki (IMP-1)?
A: 512 ± 119 nM

Q: What about the Ki (SHV-12) of the same compound?
A: 53.5 ± 12.2 nM

Q: What about the Ki (NDM-6) of the same compound?
A: 1050 nM

Q: What about the MIC [15] of the same compound?
A: > 256 µg/mL

Q: What about the MIC (Parvimonas micra KUB3000) of the same compound?
A: 64 µg/mL (≈ 166 µM)

Q: And the MIC [16]?
A: 8 µg/mL (≈ 20.7 µM)

Q: What about the MIC [17] of the same compound?
A: 16 µg/mL (≈ 41.4 µM)
